Numbers after ± are expanded uncertainties.
How the values were obtained:
[1] = Molar enthalpy of transition or fusion; conditions: Crystal; DSC
[2] = Crystal; DTA

With ON=Cc1ccccc1 [benzaldehyde oxime] the “Molar enthalpy of transition or fusion” value [1] was 3.39 ± 0.335 kcal/mol and the Normal melting temperature [2] was 29.70 ± 0.5 °C.
